Reference: patent US20240100076A1, “METHODS AND COMPOSITIONS FOR TREATING NEURODEGENERATIVE DISEASES” (Augusta University Research Institute, Inc., priority 2021, published 2024)
Entries after “also recorded” stand apart in the source; their conditions may differ.

Legend:
NSC pools in DG and SVZ = conditions: icv by micro-osmotic pump, 5 mg/kg/day for 7 days, GD3S-KO mouse; cited from earlier work
VDAC1 = VDAC1 expression in PD mouse brain; format: in vivo; conditions: intranasal 5 mg/kg/day for 28 days
Experimental: (§1) The acquisition, care, and experimental treatment of animals used in this study were in compliance with the NIH guidelines as published in the Guide for the Care and Use of Laboratory Animals. Gangliosides (GD3 or GM1; 5 mg/kg/day) were infused intranasally (Hanson, et al., J. Vis. Exp. (74) (2013) doi.org/10.3791/4440.) with a small pipette (each […] into the right and left nares twice, or […] per day) into 8-month-old WT (C57B6/J), A53T PD, and GM2S-KO mice daily for 7-28 days. GD3 and GM1 used in this study were isolated from either bovine buttermilk or brains by established procedures (Ariga, et al., J. Biol. Chem. 269, 2667-2675 (1994), Ledeen and Yu, Methods Enzymol. 83, 139-191 (1982), Ren, et al., J. Biol. Chem. 267, 12632-12638 (1992)). Gangliosides, being amphipathic, were easily dissolved in saline. The placebo group received saline infusions. At first, to provide direct evidence for ganglioside administration into brain, mice totally deficient in GM1 (8-month-old GM2S-KO mice) were intranasally administered GM1 (0.5 or 5 mg/kg/day) for 7 days. Brain-delivered GM1 was analyzed by immunohistochemistry and TLC. After confirmation that ganglioside reached the brain of GM2S-KO mice by the intranasal route, 8-month-old A53T PD mice were utilized for ganglioside treatments (28 days). […]

[1] = test system: hippocampal NSC (Sox2 positive cell); experiment: SOX2 positive NSCs in hippocampus of PD mouse brain; format: in vivo; conditions: intranasal 5 mg/kg/day for 28 days (combination: GD3 2 weeks, then GM1 2 weeks)
Experimental: as §1

5XFAD mouse brain = conditions: icv 5 mg/kg/day for 7 days; cited from earlier work
aSyn = molecular target: T1, aSyn (Homo sapiens, UniProt P37840, A53T); experiment: aSyn levels in A53T PD mouse brain after intranasal gangliosides; format: in vivo; conditions: intranasal 5 mg/kg/day for 28 days, 8-month-old A53T PD mice
T1 construct: tissue The Jackson Laboratory 006823; host or cells: brain / substantia nigra of A53T PD transgenic mice
Experimental: as §1

5XFAD mice [2] = experiment: Novel object recognition test in 5XFAD mice; format: in vivo, mouse; conditions: intranasal 5 mg/kg/day for 8 weeks (combination: GD3 4 weeks, GM1 4 weeks), 2-month-old 5XFAD mice, n=3
Experimental: FIGS. 9A and 9B illustrate the memory function of intranasal ganglioside treatments. FIG. 9A is a schematic diagram showing the experimental procedure of novel object recognition test. […] Each mouse was placed in an arena, with two identical objects placed at each end of the arena. After 5 min of investigation, mice were returned to their home cage. 24 hours later, one test object was replaced with a novel object, and animals were allowed 5 min for investigation. The time spent exploring each object was recorded. Percentages of exploration time of novel object (memory) are shown in the columns (n=3).
Gangliosides (5 mg/kg/day), GD3, GM1, or GD3-GM1 (GD3 for 4 weeks and GM1 for 4 week) were administered into 2-month-old 5XFAD mice for 8 weeks. To assess the effect of intranasal ganglioside treatment on cognitive function, mice were tested using the novel object recognition test (FIG. 9A). […] These findings indicate that intranasal ganglioside has an important role to enhance hippocampal-dependent learning and memory.

5XFAD mice [3] = experiment: Buried pellet test (olfactory function) in 5XFAD mice; format: in vivo, mouse; conditions: intranasal 5 mg/kg/day for 8 weeks (combination: GD3 4 weeks, GM1 4 weeks), n=3
Experimental: To detect olfaction deficiency, the buried pellet test was assessed (FIG. 10A). Bedding tips were set to 3 cm height. The time until mice uncover the food pellet was measured. […] It is believed that GD3 maintains stemness and inhibits further neuronal differentiation such as olfactory neurons. […] The buried pellet test, which relies on the animal's natural tendency to use olfactory cues for foraging, is used to confirm ability to smell (FIG. 10A). The time until mice uncover the food pellet in bedding tips was measured. […] Thus, GD3 has important role in olfactory function (FIG. 12).

5XFAD mice [4] = experiment: Whole-body dual-energy X-ray absorptiometry (DXA) in 5XFAD mice; format: in vivo, mouse; conditions: intranasal, 8 weeks (combination 4 + 4 weeks)
Experimental: Bone loss often accelerates with neurodegenerative diseases and during aging. Protecting from bone loss would be complementary to treatments for neurodegenerative diseases. Body composition analyses were measured by dual-energy X-ray absorptiometry (DXA; Kubtec Digimus, KUB Technologies, Stratford, CT, USA). Bone area (cm2), Bone mineral content (BMC, grams) and bone mineral density (BMD, g/cm2) were calculated for the whole body (FIGS. 11A-11C) using the manufacturer's analysis software (Kubtec Digimus). […] Increasing bone density in patients with neurodegenerative diseases, would decrease risk of fracture and increase the quality of life.

Nurr1 = experiment: Expression and nuclear localization of Nurr1 in substantia nigra pars compacta of A53T PD mouse; format: in vivo; conditions: intranasal 5 mg/kg/day for 28 days
Experimental: as §1

TH = TH expression in substantia nigra of GM2S-KO mouse; format: in vivo; conditions: intranasal 5 mg/kg/day for 28 days, 8 months old GM2S-KO mouse
Experimental: as §1

GM2S = GM2S gene expression in PD mouse brain; format: in vivo; conditions: intranasal 5 mg/kg/day for 28 days
Experimental: as §1

[5] = test system: tyrosine hydroxylase (TH); experiment: TH expression at substantia nigra in PD mouse brain; format: in vivo; conditions: intranasal 5 mg/kg/day for 28 days
Experimental: as §1

TH gene promoter = experiment: ChIP assay on TH gene promoter in Neuro 2a cells; format: cell-based, mouse; conditions: 5 mM ganglioside, 24 h
Experimental: (§2) Mouse Neuro-2a neuroblastoma cells (ATCC, Manassas, VA, USA, CCL-131) were maintained in Dulbecco's modified Eagle's medium supplemented with 10% fetal bovine serum, 2 mM glutamine, and penicillin/streptomycin at 37° C., 5% CO2.
ChIP assays were performed on cell lysates as previously described.31,32,76 Briefly, Neuro 2a cells, untreated or treated with 5 mM GD3 or GM1 for 24 h, were incubated in 1% PFA for 10 min at ambient temperature to crosslink the interacting partners. Cells with the cross-linked complexes were subjected to lysis by sonication with six 20-s pulses at the power scale 7 controlled by a sonicator (Sonic dismembrator model 100, Fisher Scientific). After centrifugation at 15,000×g for 10 min, the supernatants were collected for the following experiments. Immunoprecipitation was carried out with the following specific antibodies bound on protein G-conjugated magnetic beads (Millipore): anti-acetylated histone H3 (Millipore), anti-Nurr1 (R&D Systems), or anti-PITX3 (Thermo Fisher Scientific) antibodies. The amounts of the co-precipitated DNA fragments of TH promoter (+0), the Nurr1 binding site on the TH promoter (TH-NBS), and the PITX3 binding site on TH promoter (TH-PBS) were analyzed by qPCR. After normalization against GAPDH, the value of no treated cells was defined as 1.0. The following primers were used: TH forward, 5′-[…]-3′ (SEQ ID NO:5), reverse, 5′-[…]-3′ (SEQ ID NO:6); TH NBS forward, 5′-[…]-3′ (SEQ ID NO:7), reverse, 5′-[…]-3′ (SEQ ID NO:8); TH PBS forward, 5′-[…]-3′ (SEQ ID NO:9), reverse, 5′-[…]-3′ (SEQ ID NO:10); GAPDH forward, 5′-[…]-3′ (SEQ ID NO:11), reverse, 5′-TCAGTTCGGAG CCCACACGC-3′ (SEQ ID NO:12).

Neuro 2a cells = experiment: TH mRNA expression in Neuro 2a cells (qPCR); format: cell-based, mouse; conditions: 5 mM ganglioside, 24 h
Experimental: as §2
Total RNA samples were isolated from substantia nigra of mouse brains or cultured Neuro 2a cells using TRIzol reagent (Life Technologies from Thermo Fisher Scientific). Neuro 2a cells were untreated or treated with 5 mM GD3 or GM1 in B27-supplemented Neuro-basal-A medium for 24 h. cDNAs were synthesized based on the total RNAs as templates using MultiScribe reverse transcriptase (Applied Biosystems, Waltham, MA, USA). qPCR was performed with run RT2 SYBR Green qPCR master mix (QIAGEN, Hilden, Germany) on the CFX96 system (Bio-Rad, Hercules, CA, USA). The relative expression levels of TH were normalized to the actin transcript level. The normalized value from control (WT+saline, or no treated cells) is defined as 1.0. The following primers were used: TH forward, 5′-CACTATGCCCACCCCCAG-3′ (SEQ ID NO:1), reverse: 5′-CGCCGTCCAATGAACCTT-3′ (SEQ ID NO:2); actin forward, 5′-[…]-3′ (SEQ ID NO:3), reverse, 5′-[…]-3′ (SEQ ID NO:4).

| Substance | NSC pools in DG and SVZ (NSC pools in DG and SVZ) | VDAC1 expression (VDAC1) | hippocampal NSC (Sox2 positive cell) number [1] | SOX2-expressing cells in DG (5XFAD mouse brain) | aSyn levels / aSyn accumulation (aSyn) | memory function (exploration time of novel object) (5XFAD mice [2]) | olfactory function (time to uncover the food pellet) (5XFAD mice [3]) | bone area (5XFAD mice [4]) | bone mineral content (5XFAD mice [4]) | bone mineral density (5XFAD mice [4]) | expression and nuclear localization of Nurr1 (Nurr1) | TH expression in substantia nigra of GM2S-KO mouse (TH) | expression of GM2S (GM2S) | BrdU+/doublecortin+ (DCX+) newly generated immature neurons (5XFAD mouse brain) | TH expression at substantia nigra [5] | acetylated histone H3 on TH gene promoter (ChIP) (TH gene promoter; anti-AcH3) | recruitment of Nurr1 on the TH promoter region (ChIP) (TH gene promoter; anti-Nurr1) | recruitment of Pitx3 on the TH promoter (ChIP) (TH gene promoter; anti-Pitx3) | TH expression (mRNA) (Neuro 2a cells) |
| --- | --- | --- | --- | --- | --- | --- | --- | --- | --- | --- | --- | --- | --- | --- | --- | --- | --- | --- | --- |
| monosialodihexosylganglioside [GD3] | augments NSC pools in DG and SVZ | significantly enhance the expression | partially restored hippocampal NSC (Sox2 positive cell) number | augments self-renewal and multipotent marker, SOX2-expressing cells | partially inhibits | increased memory function | could not enhance olfactory function | increased | increased | increased |  |  |  |  |  |  |  |  |  |
| monosialotetrahexosylganglioside [GM1] |  | significantly enhance the expression |  |  | strongly inhibits; also recorded: reduced aSyn levels | increased memory function | enhance olfactory function | increased | increased | increased | restored | restore the normal TH expression | promoted expression of GM2S | increases BrdU+/doublecortin+ (DCX+) newly generated immature neurons | dramatically restored TH expression | augmentation of acetylated histone H3 | remarkably recruited | also recruited Pitx3 | dramatically increased the TH expression |
